Experimental findings from paper PMC6550521, “Stress-Induced Changes in the Lipid Microenvironment of β-(1,3)-D-Glucan Synthase Cause Clinically Important Echinocandin Resistance in Aspergillus fumigatus” (mBio, 2019) are described below.

Where “and” joins values, the source holds several entries; their conditions need not be identical. Equal entries are not always repeated. Some results are limits rather than exact numbers.

In assay [1] the test system is Aspergillus fumigatus clinical isolate 32458. The experiment in a line: Antifungal susceptibility testing (MEC, CLSI M38-A2). In kind it is cell-based. To be noted: clinical isolate 32458, fks1 WT. The method, then: (§1) Minimum effective concentrations (MECs) for A. fumigatus strains were determined according to CLSI document M38-A2 ([48]) and defined as the lowest drug concentration that led to the growth of small, rounded, compact hyphal forms compared to the hyphal growth seen in the drug-free growth control wells. The following drugs (supplier) were tested: caspofungin (Merck & Co., Inc.), micafungin (Astellas Pharma US, Inc.), anidulafungin (Pfizer Inc.), itraconazole (Sigma-Aldrich), voriconazole (Pfizer Inc.), and amphotericin B (Sigma-Aldrich). In addition, rezafungin and ibrexafungerp were obtained from Cidara Therapeutics and Scynexis Inc., respectively.

In assay [2] the test system is Aspergillus fumigatus clinical isolate 68284B. The assay is described as above. The assay is classed as cell-based. To be noted: fks1 WT. The method, then:
as §1

The test system of assay [3] is Aspergillus fumigatus clinical isolate 32315. The assay is described as above. The assay is classed as cell-based. The following applies: clinical isolate 32315, fks1 WT. The method, then: as §1
Assay [4] deals with Aspergillus fumigatus clinical isolate 117. The description is as above. The assay is classed as cell-based. To be noted: clinical isolate 117, fks1 WT. As to the method:
as §1

For assay [5], the system named is Aspergillus fumigatus clinical isolate 2770. The assay is described as above. The following applies: clinical isolate 2770, fks1 WT. The assay is classed as cell-based. As to the method: as §1
The next assay relates to fks1 expression in RG101. The experiment in a line: fks1 expression by RT-PCR. The assay is classed as cell-based, Aspergillus fumigatus. To be noted: RG101, 16 h in YPD, CAS 1 and 4 μg/ml. The method, then: Supplementary file : FIG S1 fks1 expression levels in RG101 under uninduced and CAS-induced conditions. RG101 conidia were grown for 16 h in YPD in the absence and presence of CAS (1 and 4 μg/ml), and expression levels of fks1 were compared using reverse transcription-PCR (RT-PCR). […] Download FIG S1, DOCX file, 0.02 MB.

Assay [6] deals with β-(1,3)-D-glucan synthase of RG101 (Aspergillus fumigatus, UniProt Q4WLT4). The experiment in a line: Glucan synthase kinetic inhibition assay, enzyme from RG101. The assay is classed as biochemical. The method, then:
ATCC 13073 or RG101 was grown in liquid YPD medium at 37°C for 16 h. Partially purified glucan synthase was isolated by the product entrapment method, as previously described ([21]). Sensitivity to echinocandin drugs was measured by glucan synthase assay, using a 96-well multiscreen high-throughput screen filtration system (Millipore Corporation, Bedford, MA) in a final volume of 100 μl. Inhibition of the enzyme by the drug was analyzed after incubation of the enzyme with a radioactive substrate over a broad range of concentrations (0 to 10,000 ng/ml) of echinocandins for 1 h at room temperature. Radioactivity from the enzyme product, β-(1,3)-D-glucan, was measured. Inhibition profiles were determined using a sigmoidal response curve fitting algorithm with GraphPad Prism software (v 7.04).
To study the effect of lipids on the enzyme, dihydrosphingosine, phytosphingosine, or phytoceramide C2 (Sigma-Aldrich D6783, P2795, and C8105, respectively) was added directly to the assay mixture and coincubated with an echinocandin for 1 h at room temperature.

The subject of assay [7] is A. fumigatus RG101. The assay is classed as cell-based, Aspergillus fumigatus. As to the method: The following drugs (supplier) were tested: caspofungin (Merck & Co., Inc.), micafungin (Astellas Pharma US, Inc.), anidulafungin (Pfizer Inc.), itraconazole (Sigma-Aldrich), voriconazole (Pfizer Inc.), and amphotericin B (Sigma-Aldrich). In addition, rezafungin and ibrexafungerp were obtained from Cidara Therapeutics and Scynexis Inc., respectively.

For assay [8], the system named is A. fumigatus RG101. The assay is described as follows: Acute pulmonary aspergillosis model in neutropenic DBA/2 mice, lung fungal burden by qPCR. In kind it is in vivo, Aspergillus fumigatus. The method, then:
Resistance of RG101 to CAS in vivo was tested in an acute pulmonary aspergillosis model. Thirty inbred DBA/2 mice were rendered neutropenic and infected with 1 × 10^6 RG101 conidia intratracheally. The mice were then treated with CAS (5 mg/kg of body weight), MFG (5 mg/kg), or vehicle daily for 5 days, and lung burdens were determined using quantitative PCR (qPCR). Details of the experiment are provided in Text S1 in the supplemental material.
All animal experiments performed were approved by the Rutgers University Institutional Animal Care and Use Committee. Thirty female DBA/2 mice [The Jackson Laboratory, Bar Harbor, ME] were used in the experiment. The mice were housed in cages equipped with HEPA filters and were allowed free access to food and water. To establish neutropenia, mice were immunosuppressed with cyclophosphamide on days -4 (150 mg/kg), -1 and +2 (100 mg/kg) intraperitoneally (ip) and hydrocortisone on day -1 (200 mg/kg) via subcutaneous injection (sc). The animals were given prophylaxis sc ceftazidime (50 mg/kg) on all days to prevent secondary bacterial infections. A. fumigatus RG101 was streaked out from a frozen glycerol stock and cultured on Potato dextrose agar (PDA) slant for 2 days. The spores were harvested in phosphate-buffered saline (PBS) with 0.05% (v/v) Tween 20 and counted in a hemocytometer. The mice were briefly anesthetized IP Ketamine (65 mg/kg)/Xylazine (5 mg/kg) and infected with 1×10^6 spores of RG101 in 25 µL volume via intratracheal instillation. The 30 RG101 infected mice were randomized into following treatment arms for IP treatment: vehicle, CAS (5 mg/kg), and MFG (5 mg/kg). The first treatment was given at 3 h post infection (PI) and continued daily treatments were administered. On day 5 PI, mice were humanely euthanized via CO2 narcosis. Lungs were excised and homogenized in 1 ml of sterile PBS using a 2 ml tube containing ceramic spheres by MP Biomedicals (116913500). Tissue was then homogenized in 20 s bursts in a mini bead beater (MP FastPrep-24) followed by cooling on ice. DNA was then isolated from an aliquot of the lung homogenate (100 μl) using the QIAamp DNA Mini Kit by Qiagen (51304) and analyzed by real-time quantitative PCR (qPCR) using primers specific for A. fumigatus 18S rRNA genes (Wiederhold et al 2004).

The subject of assay [9] is lipid microenvironment of glucan synthase of clinical isolates 117, 2770 and 32458. The assay is described as follows: Lipid analysis (LC-MS/MS) of partially purified glucan synthase. In kind it is cell-based, Aspergillus fumigatus. To be noted: isolates 117, 2770, 32458 treated with CAS. As to the method: (§2) Approximately 10 μg/ml of partially purified glucan synthase of RG101 and clinical isolates was analyzed for lipid content by LC-MS/MS ([50]) at the Lipidomics Shared Resource of the Medical University of South Carolina (http://www.hollingscancercenter.org/research/shared-resources/lipidomics/index.html).

The subject of assay [10] is lipid microenvironment of glucan synthase of RG101. The assay is described as above. In kind it is cell-based, Aspergillus fumigatus. To be noted: RG101 grown with CAS 1 μg/ml. The method, then: as §2

Sequence of β-(1,3)-D-glucan synthase of RG101 (Q4WLT4 1-1904): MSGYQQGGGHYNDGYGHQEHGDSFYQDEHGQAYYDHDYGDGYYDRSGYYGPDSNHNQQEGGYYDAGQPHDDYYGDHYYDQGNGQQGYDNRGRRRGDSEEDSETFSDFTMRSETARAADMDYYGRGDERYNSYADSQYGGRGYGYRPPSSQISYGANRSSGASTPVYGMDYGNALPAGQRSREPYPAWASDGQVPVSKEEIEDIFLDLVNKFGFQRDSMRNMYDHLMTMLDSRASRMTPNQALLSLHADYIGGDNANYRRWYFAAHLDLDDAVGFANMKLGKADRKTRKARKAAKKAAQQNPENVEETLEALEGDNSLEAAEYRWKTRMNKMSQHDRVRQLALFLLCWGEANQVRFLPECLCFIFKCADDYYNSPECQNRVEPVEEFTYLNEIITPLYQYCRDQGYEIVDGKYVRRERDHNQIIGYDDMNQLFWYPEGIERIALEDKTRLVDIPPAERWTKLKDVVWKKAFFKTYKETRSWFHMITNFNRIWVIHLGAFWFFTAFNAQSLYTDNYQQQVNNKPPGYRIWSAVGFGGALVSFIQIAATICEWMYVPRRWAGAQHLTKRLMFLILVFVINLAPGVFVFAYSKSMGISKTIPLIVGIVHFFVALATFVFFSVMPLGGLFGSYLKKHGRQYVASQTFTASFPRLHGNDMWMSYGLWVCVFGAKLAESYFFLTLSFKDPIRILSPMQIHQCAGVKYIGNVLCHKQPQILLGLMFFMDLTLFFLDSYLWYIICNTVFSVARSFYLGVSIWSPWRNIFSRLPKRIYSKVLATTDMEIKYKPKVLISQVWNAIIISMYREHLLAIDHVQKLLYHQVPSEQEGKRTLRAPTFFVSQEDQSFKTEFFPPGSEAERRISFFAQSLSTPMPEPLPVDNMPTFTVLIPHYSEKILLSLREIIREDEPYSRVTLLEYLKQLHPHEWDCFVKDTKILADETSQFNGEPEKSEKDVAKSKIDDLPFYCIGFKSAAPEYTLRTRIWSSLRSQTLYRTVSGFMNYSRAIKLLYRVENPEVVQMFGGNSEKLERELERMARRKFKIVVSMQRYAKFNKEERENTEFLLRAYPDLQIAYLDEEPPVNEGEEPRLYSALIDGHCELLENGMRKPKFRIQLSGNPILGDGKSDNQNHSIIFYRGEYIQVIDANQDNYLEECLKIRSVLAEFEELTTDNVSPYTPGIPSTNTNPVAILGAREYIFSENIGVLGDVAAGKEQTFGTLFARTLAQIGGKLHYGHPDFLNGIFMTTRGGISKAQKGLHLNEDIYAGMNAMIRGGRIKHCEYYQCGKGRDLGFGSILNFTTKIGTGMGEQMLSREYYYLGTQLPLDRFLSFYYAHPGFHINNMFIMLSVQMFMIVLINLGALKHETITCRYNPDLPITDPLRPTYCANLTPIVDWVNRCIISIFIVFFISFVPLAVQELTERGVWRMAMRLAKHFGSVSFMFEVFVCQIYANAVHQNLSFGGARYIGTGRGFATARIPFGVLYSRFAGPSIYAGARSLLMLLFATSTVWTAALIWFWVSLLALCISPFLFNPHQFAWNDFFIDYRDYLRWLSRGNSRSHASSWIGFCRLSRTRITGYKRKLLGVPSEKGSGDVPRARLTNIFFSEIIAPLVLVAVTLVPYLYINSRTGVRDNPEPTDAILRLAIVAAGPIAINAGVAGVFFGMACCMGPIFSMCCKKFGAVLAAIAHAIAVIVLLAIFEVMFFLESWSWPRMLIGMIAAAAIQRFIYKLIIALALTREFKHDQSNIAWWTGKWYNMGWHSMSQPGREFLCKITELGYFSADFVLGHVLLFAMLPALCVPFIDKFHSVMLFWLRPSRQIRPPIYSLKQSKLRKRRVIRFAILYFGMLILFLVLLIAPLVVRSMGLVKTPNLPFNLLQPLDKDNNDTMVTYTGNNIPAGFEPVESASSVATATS

Take `CC[C@H](C)C[C@H](C)CCCCCCCCC(=O)N[C@H]1C[C@@H](O)[C@@H](NCCN)NC(=O)[C@@H]2[C@@H](O)CCN2C(=O)[C@H]([C@H](O)CCN)NC(=O)[C@H]([C@H](O)[C@@H](O)c2ccc(O)cc2)NC(=O)[C@@H]2C[C@@H](O)CN2C(=O)[C@H]([C@@H](C)O)NC1=O` [CAS, caspofungin]: the “MEC (minimum effective concentration)” value in assay [1] amounted to 16 µg/mL; in [2] it was 4 µg/mL; in [3], 16 µg/mL; in [4], 16 µg/mL; in assay [5], 16 µg/mL. Besides, in the assay on fks1 expression in RG101, the “fks1 expression levels, CAS-induced vs uninduced” value is given as “No significant differences”. Also, in assay [6] (RG101 grown in presence vs absence of CAS), the “Loss of sensitivity (IC50 shift) of glucan synthase from RG101 grown with CAS versus without” value amounted to 4 log orders. This compound also gave a 50% inhibitory concentration (IC50) in assay [6] (enzyme from RG101 grown at 4 μg/ml CAS) of over 9.15 µM. In addition, the “Breakthrough growth concentrations, RG101” value with A. fumigatus RG101 [7] (24 h) lay in the range of 0.5 to 8 µg/mL. Besides, the “MEC 2 (rosettes form again), RG101” value in the assay on A. fumigatus RG101 [7] (24 h) is 16 µg/mL. In the assay with A. fumigatus RG101 [7] (24 h), the “Susceptibility phenotype of RG101” value is given as “resistant”. For the same compound, in the assay on A. fumigatus RG101 [7] (30 h, all concentrations tested (0.25 to 8 μg/ml)), the “Growth phenotype of RG101 at 30 h” value was “full breakthrough”. Moreover, the “Decrease in lung burden versus vehicle-treated group” value in the assay with A. fumigatus RG101 [8] (RG101, 5 mg/kg daily for 5 days) is “No significant differences”. In addition, the “Average fungal lung burden” value in the assay with A. fumigatus RG101 [8] (RG101 intratracheal, 5 mg/kg daily IP for 5 days, qPCR) is 22.6 ng fungal DNA per lung. The “Abundance of DhSph and PhSph in enzyme preparations of CAS-treated clinical isolates” value in [9] was “significantly increased abundance”. Besides, in [10], the “Increase in abundance of dihydrosphingosine (DhSph), CAS-treated vs untreated” value was 2 fold and 3 fold. Besides, the “Increase in abundance of phytoceramide (C24), CAS-induced vs uninduced” value in assay [10] is 3 fold. Also, in [10], the “Increase in abundance of phytosphingosine (PhSph), CAS-treated vs untreated” value was 10 fold.
